Data taken from ChEMBL document CHEMBL3244073, “1,2,4-Triazole amino nucleosides. 1-beta-D-3'-Amino-3'-deoxyribofuranosyl-1,2,4-triazole-3-carboxamide and related nucleosides” (1977).
Active and inactive are the calls of the source. The rule behind the calls is not given here.

Each compound was assayed on Vaccinia virus (assay: Antiviral activity against Vaccinia virus Lederle Chorioallantoic assessed as inhibition of virus-induced cytopathogenicity). Details: Orthopoxvirus vaccinia.
Type: functional, organism-based

Q: With `NNC(=O)c1ncn([C@@H]2O[C@H](CO)[C@@H](N)[C@H]2O)n1` as the compound, how does the Activity read?
A: inactive

Q: How did the Activity turn out when `NC(=O)c1ncn([C@@H]2O[C@H](CO)[C@@H](N)[C@H]2O)n1` was run?
A: inactive

Q: Which Activity does the source give for `N/C(=N/O)c1ncn([C@@H]2O[C@H](CO)[C@@H](N)[C@H]2O)n1` here?
A: inactive

Q: How did the Activity turn out when `NC(=O)c1ncnn1[C@@H]1O[C@H](CO)[C@@H](N)[C@H]1O` was run?
A: inactive

Q: How did the Activity turn out when `N/N=C(/N)c1ncn([C@@H]2O[C@H](CO)[C@@H](N)[C@H]2O)n1` was run?
A: inactive

Q: `N[C@H]1[C@@H](O)[C@H](n2cnc(C(=O)NO)n2)O[C@@H]1CO` was tested. Which Activity did it give?
A: inactive
